The text below walks through data of patent publication US9024022B2, “Substrates of O6-alkylguanine-DNA alkyltransferase and mutants thereof” (Cis Bio International, priority 2008, dated 2015).

The experiment addresses T1, CLIP-tag enzyme (CLIPtag-mGluR2 fusion protein) (Homo sapiens, UniProt P16455, A121V/A127T/A154D/C150Q/C62A/G131N/G132T/G153S/K125A/K32I/L33F/M134L/M60I/N157P/Q115S/Q116H/R128A/R135D/S151G/S152D/S159L/Y114E).
T1 construct: The co-expressed SNAPtag-mGluR2 is a separate chain that carries the FRET partner dye
T1 sequence (P16455 1-207 K32I/L33F/M60I/C62A/Y114E/Q115S/Q116H/A121V/K125A/A127T/R128A/G131N/G132T/M134L/R135D/C150Q/S151G/S152D/G153S/A154D/N157P/S159L): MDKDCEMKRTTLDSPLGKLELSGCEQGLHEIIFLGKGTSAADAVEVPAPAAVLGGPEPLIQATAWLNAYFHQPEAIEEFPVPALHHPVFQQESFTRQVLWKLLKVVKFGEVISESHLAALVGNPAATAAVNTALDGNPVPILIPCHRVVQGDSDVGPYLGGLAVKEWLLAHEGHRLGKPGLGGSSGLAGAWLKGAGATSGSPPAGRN
The experiment is described as follows: Cell model with CLIPtag-mGluR2 and SNAPtag-mGluR2 cotransfection, TR-FRET at 665 nm. Format: cell-based. As to conditions: cells incubated with 300 nM of BG-methylbenzamide-Tb(KR); TR-FRET; read-out: half saturation concentration of CLIPtag. As to the method:
The cell model used in this example is different from that used in the preceding examples:
The cells are either cotransfected with a plasmid coding for the fusion protein CLIPtag-mGluR2 and another plasmid coding for the fusion protein SNAPtag-mGluR2, or transfected with a single plasmid coding for the fusion protein SNAPtag-mGluR2.
Each cell population is incubated in the presence of 300 nM of BG-methylbenzamide-DY647 and increasing concentrations of reference substrates (BC-Tb(KR)) or of a substrate according to the invention (BC-methylbenzamide-Tb(KR)). The fluorescence is measured at 665 nm in TR-FRET mode on a Rubystar machine and the signal measured is representative of a transfer of energy following the dimerization of two monomers of mGluR2 labeled respectively by DY647 and Tb(KR).
This example is carried out in the same way as example 7 but the cells are incubated in the presence of 300 nM of BG-methylbenzamide-Tb(KR) and increasing concentrations of reference substrate (BC-DY647) or of substrate according to the invention (BC-methylbenzamide-DY647), the formulae of which are below: […]
On the technique in general: Time-resolved FRET reads energy transfer from a long-lived donor to a nearby acceptor.

For `CCN1/C(=C/C=C/C=C/C2=[N+](CC)c3ccc(S(=O)(=O)[O-])cc3C2(C)C)C(C)(CCCC(=O)NCc2ccc(C(=O)NCc3ccc(COc4nccc(N)n4)cc3)cc2)c2cc(S(=O)(=O)O)ccc21` (stereo not shown) [BC-methylbenzamide-DY647, DY647-methylbenzamide-BC], the EC50 came to 240 nM.
